Earlier results in patent US20250041489A1, “A Drug Coating Formulation for a Sirolimus Coated Balloon Catheter” (C. R. Bard, Inc., priority 2021, published 2025).

Details: compared to amorphous sirolimus

CO[C@H]1C[C@@H]2CC[C@@H](C)[C@@](O)(O2)C(=O)C(=O)N2CCCC[C@H]2C(=O)O[C@H]([C@H](C)C[C@@H]2CC[C@@H](O)[C@H](OC)C2)CC(=O)[C@H](C)/C=C(\C)[C@@H](O)[C@@H](OC)C(=O)[C@H](C)C[C@H](C)/C=C/C=C/C=C/1C [crystalline sirolimus, sirolimus]
Half-life of sirolimus on the surface of a balloon: four weeks
